Measured values from publication PMC5471252, “Anti-leukemia activity of a Hsp70 inhibitor and its hybrid molecules” (Scientific Reports, 2017).
“Also recorded” adds a separate entry of the source.

Key:
K562 cells = test: MTT assay, cell viability of K562 cells; type: cell-based; conditions: Homo sapiens, 48 h, mean ± s.d., n = 3, read-out: IC50 values of compounds for leukemia cells
[1] = system: Hsp70 level in HL-60 and K562 cells; test: Western blot of Hsp70 and Hsp90 levels; type: cell-based, human; conditions: cells treated 24 h
Protocol: Because Az-O3-GD promotes caspase activation in leukemia cells, it was anticipated that procaspase-9, procaspase-3 and PARP would be cleaved in treated cells. To test this possibility, HL-60 and K562 cells were exposed to Az-O3-GD, along with Az and GD as controls and western blot analysis was then carried out. […] Although Az-O3-GD upregulates Hsp70, the presence of the Hsp70 inhibitor in this hybrid causes its cytotoxicity against leukemia cells to be higher than that of GD. Finally, we examined the effect of Az-O3-GD on AIF-mediated caspase-independent apoptosis. To this end, HL-60 and K562 cells were incubated with Az-O3-GD for 24 h.
Western blot analysis. […] peroxidase-conjugated goat anti-rabbit IgG (1:2000, Santa Cruz Bio Technology) and goat anti-mouse IgG (1:2000, Santa Cruz Bio Technology) were used as the secondary antibodies. The blots were developed by using a West-ZOL® plus Western Blot Detection System (Intron Biotechnology Inc., South Korea). Western blot signals were analyzed by using a G:BOX Chemi Fluorescent & Chemiluminescent Imaging System.

Jurkat cells = test: MTT assay, cell viability of Jurkat cells; type: cell-based; conditions: Homo sapiens, 48 h, mean ± s.d., n = 3, read-out: IC50 values of compounds for leukemia cells
[2] = target: T1, interaction of Hsp70 with Apaf-1 in HL-60 and K562 cells (Homo sapiens, UniProt P0DMV8); test: Immunoprecipitation of Hsp70/Apaf-1 complex with Hsp70 antibody; type: cell-based; conditions: cells treated 24 h, co-immunoprecipitation
T1 construct: endogenous in cells; host or cells: HL-60 and K562 cells
T1 sequence (P0DMV8 whole entry): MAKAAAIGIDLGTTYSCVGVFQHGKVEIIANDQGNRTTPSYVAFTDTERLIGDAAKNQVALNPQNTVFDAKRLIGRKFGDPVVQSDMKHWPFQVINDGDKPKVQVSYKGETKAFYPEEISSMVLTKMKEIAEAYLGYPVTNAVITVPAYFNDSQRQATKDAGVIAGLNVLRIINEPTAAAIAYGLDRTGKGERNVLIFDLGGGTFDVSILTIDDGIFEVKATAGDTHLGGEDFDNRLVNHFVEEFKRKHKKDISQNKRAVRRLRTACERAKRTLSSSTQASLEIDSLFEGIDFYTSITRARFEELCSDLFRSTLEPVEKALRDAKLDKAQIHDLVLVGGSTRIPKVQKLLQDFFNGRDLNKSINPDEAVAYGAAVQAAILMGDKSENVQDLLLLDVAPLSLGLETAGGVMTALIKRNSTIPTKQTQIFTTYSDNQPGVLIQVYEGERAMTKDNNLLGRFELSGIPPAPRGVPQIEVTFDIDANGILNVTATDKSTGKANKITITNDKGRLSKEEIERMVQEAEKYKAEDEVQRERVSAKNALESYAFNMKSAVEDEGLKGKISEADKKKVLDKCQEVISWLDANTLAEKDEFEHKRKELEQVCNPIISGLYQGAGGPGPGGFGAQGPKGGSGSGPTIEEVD
Protocol: With this information in mind, we tested if Az enhances the cytochrome c release from mitochondria into the cytosol in leukemia cells. The levels of cytochrome c in cytosolic and mitochondrial fractions of HL-60 and K562 cells after treatment with Az were determined by using western blot analysis. […] We next determined if the binding of Hsp70 to Apaf-1 is suppressed by Az during apoptosis. For this purpose, HL-60 and K562 cells were exposed to Az, and a complex of Hsp70 and Apaf-1 was then immunoprecipitated with Hsp70 antibody.
Supplementary Figure S9. Az blocks association of Hsp70 with Apaf-1. (a) HL-60 and K562 cells were treated with Az for 24 h, and the amount of Hsp70, Hsc70 and Apaf-1 was measured by western blot. […] (b) HL-60 and K562 cells were treated with Az for 24 h. Immunoprecipitation was performed with a Hsp70 antibody, and the amount of co-precipitated Apaf-1 was determined by western blot.

HL-60 and K562 cells [3] = test: Flow cytometry, fluorescein-annexin V and PI staining; type: cell-based, human; conditions: 24 h; 10 µM Az, 10 µM GD or 4 µM Az-O3-GD
Protocol: (§1) To determine whether Az promotes leukemia cell death via apoptosis, acute leukemia HL-60 and chronic leukemia K562 cells were independently incubated with Az. The treated cells were then exposed to a mixed solution of fluorescein-annexin V and propidium iodide (PI) and flow cytometry analysis was conducted. […] The size of the treated cells was also assessed by using flow cytometry. […] We also investigated if the mitochondrial membrane potential in cells treated with Az is disrupted. To test this possibility, HL-60 and K562 cells were exposed to Az and subsequently stained with a membrane potential sensitive JC-1 probe. […] This serves as another evidence for apoptosis induced by Az.
HL-60 and K562 cells were incubated with each compound for 24 h in culture media. Cells were re-suspended with 500 μL binding buffer (10 mM HEPES, […] and 2.5 mM CaCl2, pH 7.5) and then incubated with the FITC-annexin V apoptosis detection kit with PI according to the protocol provided by the manufacturer. Flow cytometry was carried out by using a BD FACSVerse™ instrument (BD Biosciences) and the data were analyzed by using a FlowJo™ software (BD Biosciences).

U937 cells = test: MTT assay, cell viability of U937 cells; type: cell-based; conditions: Homo sapiens, U-937, 48 h, mean ± s.d., n = 3, read-out: IC50 values of compounds for leukemia cells
[4] = system: Ba/F3 cells producing imatinib-resistant mutant Bcr-Abl (T315I); test: MTT assay, Ba/F3 cells producing mutant Bcr-Abl (T315I); type: cell-based, murine; conditions: Mus musculus, BaF3, 24 h, read-out: IC50 values, cytotoxicity towards cells expressing mutant Abl
Protocol: Next, the cytotoxic effects of Az on wild-type and mutant Bcr-Abl expressing cells were evaluated.
Cells were exposed to each compound (a HCl salt form) at various concentrations for indicated time periods (24 or 48 h) in culture media. MTT assays were conducted according to known procedures. The absorbance at 570 nm was determined by employing a microplate reader (TECAN, Infinite® 200 PRO).
Cells were treated with various concentrations of each compound for 24 h. Cell death was measured by using an MTT assay (mean ± s.d., n = 3).

THP-1 cells = test: MTT assay, cell viability of THP-1 cells; type: cell-based; conditions: Homo sapiens, 48 h, mean ± s.d., n = 3, read-out: IC50 values of compounds for leukemia cells
KG-1 cells = test: MTT assay, cell viability of KG-1 cells; type: cell-based; conditions: Homo sapiens, 48 h, mean ± s.d., n = 3, read-out: IC50 values of compounds for leukemia cells
[5] = system: caspase activity of HL-60 and K562 cells; test: Caspase activity assay with Ac-DEVD-pNA in cell lysates; type: cell-based, human; conditions: lysates of cells treated 24 h
Protocol: Because Az inhibits the association of Hsp70 with Apaf-1, caspase associated proteolytic activities should increase in cells treated with Az. To determine whether this event occurs, caspase activities of HL-60 and K562 cells treated with Az were measured by using the colorimetric substrate, Ac-DEVD-pNA (pNA, p-nitroaniline). […] We also examined whether leukemia cells are protected from the effect of Az by ZVAD-FMK (benzyloxycarbonyl-Val-Ala-Asp(OMe) fluoromethyl ketone, a cell-permeable inhibitor of pan-caspases). HL-60 and K562 cells were pre-incubated with ZVAD-FMK for 3 h and subsequently exposed to Az.
HL-60 and K562 cells treated with each compound for 24 h were lysed in a buffer containing 50 mM HEPES (pH 7.4), 5 mM CHAPS and 5 mM DTT. Assay buffer containing 20 mM HEPES (pH 7.4), 0.01% CHAPS, 5 mM DTT and 2 mM EDTA was added to cell lysates. Caspase activity was measured in the absence or presence of acetyl-DEVD-pNA (200 μM) (Sigma-Aldrich) by using a microplate reader (monitored at 405 nm).

HL-60 cells = test: MTT assay, cell viability of HL-60 cells; type: cell-based; conditions: Homo sapiens, 48 h, mean ± s.d., n = 3, read-out: IC50 values of compounds for leukemia cells
HL-60 and K562 cells [6] = test: Flow cytometry, JC-1 mitochondrial membrane potential; type: cell-based, human; conditions: 24 h; 10 µM Az or 4 µM Az-O3-GD
Protocol: as §1
JC-1 staining: HL-60 and K562 cells were treated with each compound and then with 2.5 μg/mL JC-1 (Anaspec) in PBS for 15 min. Flow cytometry was conducted with a BD FACSVerse™ instrument (the red fluorescence signal: λex = 550 nm, λem = 600 nm; the green fluorescence signal: λex = 485 nm, λem = 535 nm) and the data were analyzed using a FlowJo™ software.

COc1ccc(-c2nc(-c3cc(C(F)(F)F)cc(C(F)(F)F)c3)n(Cc3ccc(C(=O)NCCOCCOCCN)cc3)c2-c2ccc(OC)cc2)cc1 [Az, apoptozole]
IC50 (K562 cells): 3.6 ± 0.52 µM | translational level of Hsp70 [1]: does not affect the translational levels of Hsp70 and Hsp90 | IC50 (Jurkat cells): 3.1 ± 0.61 µM | interaction of Hsp70 with Apaf-1 [2]: inhibits the interaction of Hsp70 with Apaf-1 | apoptosis, annexin V binding and PI uptake (HL-60 and K562 cells [3]): positive annexin V binding and positive PI uptake; also recorded: induces apoptosis | IC50 (U937 cells): 4.7 ± 0.77 µM | IC50 [4]: 2.2 µM | IC50 (THP-1 cells): 3.7 ± 0.73 µM | IC50 (KG-1 cells): 3.3 ± 0.71 µM | caspase activity of treated cells [5]: increase | IC50 (HL-60 cells): 2.8 ± 0.87 µM | mitochondrial membrane potential, JC-1 red fluorescence (HL-60 and K562 cells [6]): reduction of the mitochondrial membrane potential
